The values that follow come from patent US9012419B2, “Methods and compositions related to eosinophil regulation” (University of Utah Research Foundation, priority 2006, dated 2015).

Several values for one entry are separate records, joined by “and”; a condition that tells them apart may be missing. Equal values may be shown once. Where a name gives a salt, the structure may show the parent alone. Read-outs that look alike come from different tables or passages of the source.

For assay [1], the system named is IL-5 stimulated TF-1 cells. The assay is described as follows: TF-1 cell proliferation assay, IL-5 stimulated cultures. It counts as cell-based, human. To be noted: for Di: Di=EPO IC-50/IL5 IC-50; for IL-5 IC-50 compared with lidocaine: in words. How it is done: (§1) Controls and test compounds were assayed in serial dilutions, ranging from 1 mM to 0.5 uM, against TF-1 cell proliferation. Compounds were solublized in DMSO in 0.2M solutions followed by serial dilutions with the culture media.
(§2) Each dilution of the compounds was tested in triplicate in a 96 well, flat bottom tissue culture plate with 10,000 TF-1 cells per well for their abilities to inhibit IL-5 and/or EPO stimulated cultures. Wells without cells were used for the background signals. Both IL-5 and EPO stimulated cell cultures were tested in assays performed on the same day. Cultures were incubated for 72 hours in a 37° C. humidified incubator. At the end of the incubation, CellTiter AQueous One Solution (Promega, Madison, Wis.) was added for 1 to 3 hours, depending on the rate of color change. Following sufficient color change, the plates were read on a spectrophotometer (SpectraMax 190, Molecular Devices) at 490 nm.
(§3) IC-50 and […] values were calculated using the software SOFTmax Pro (Molecular Devices, Sunnyvale, Calif.).
(§4) Compounds were screened by inspecting the IC-50 values of the drug candidate on the proliferation assay. […] Potencies of the investigated compounds in inhibiting TF-1 cell proliferation were evaluated by comparing their IC-50 values relative to lidocaine. Due to the ability of TF-1 cells to be stimulated by a variety of cytokines, specificity can be evaluated by comparing IL-5 and EPO stimulated cell cultures IC-50 values. Specificity or differential inhibition (Di) values can be calculated for the investigated compounds using equation 1. Di=EPO IC-50/IL5 IC-50 (equation 1)

For assay [2], the system named is EPO stimulated TF-1 cells. The assay is described as follows: TF-1 cell proliferation assay, EPO stimulated cultures. To be noted: Homo sapiens. It counts as cell-based. How it is done: as §1, §2, §3, §4
The conditions of assay [3]: nebulized, Hunt, cited from earlier work.
For another assay, the target named is T1, IL-5 (Homo sapiens, UniProt P05113).
T1 construct: Administration of the anti-IL-5 drug, mepolizumab, to patients with mild asthma reduced blood and sputum eosinophils; host or cells: endogenous IL-5 in human patients with mild asthma (in vivo)
T1 sequence (P05113 20-134): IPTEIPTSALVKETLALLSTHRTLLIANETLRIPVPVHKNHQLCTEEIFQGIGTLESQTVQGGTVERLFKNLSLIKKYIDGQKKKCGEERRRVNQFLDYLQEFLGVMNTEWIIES
To be noted: patients with mild asthma; Leckie, 2000; cited from earlier work.

[4] abbreviates: Homo sapiens, TF-1, 72 h, Table 6, TF-1 cells with IL-5 (5 ng/mL), 72 hours, read-out: IL-5 IC-50.
[5] abbreviates: Homo sapiens, TF-1, 72 h, Table 7, TF-1 cells with IL-5, 72 hours, read-out: IL-5 IC-50.
Where [6] appears, read: Table 7, TF-1 cells with EPO (2 units/mL), 72 hours, read-out: EPO IC-50.
Setting [7] is: Homo sapiens, TF-1, text, IL-5 stimulated TF-1 cells, read-out: IL-5 IC-50.

For the molecule `CN1CCOc2cc(Br)ccc21` [Compound 8, 7-Bromo-4-methyl-3,4-dihydro-2H-1,4-benzoxazine], the IC50 in assay [1] (setting [4]) was determined as 24 µM.

Take “Disopyramide [Compound 27, reference compound]”: the IC50 in assay [1] (Table 6, TF-1 cells with IL-5 (5 ng/mL), 72 hours, read-out: IL-5 IC-50) came to 129 µM.

With `CCCCN1CCCCC1C(=O)Nc1c(C)cccc1C` (stereo not drawn) [Compound 25, Bupivicaine Hydrochloride, reference compound], the IC50 in assay [1] (setting [4]) worked out at 107 µM.

For `c1ccc2c(c1)OCC(C1=NCCN1)O2` (stereo not drawn) [Compound 23, Idazoxan Hydrochloride, reference compound], in assay [1] (setting [4]), the IC50 turned out to be 97 µM.

Turning to `CCCCOc1cc(C(=O)NCCN(CC)CC)c2ccccc2n1` [Compound 13, Dibucaine Hydrochloride, reference compound], the IC50 in assay [1] (setting [4]) was 48 µM.

Turning to `CCN(CC)CCOC(=O)c1ccc(N)cc1` [Compound 17, Procaine, reference compound], the IC50 in assay [1] (setting [4]) turned out to be 71 µM; in assay [1] (setting [5]) it was 71 µM; in assay [2] (setting [6]), 109 µM. In addition, in assay [1] (Table 7), the Di came to 1.535.

For `Cc1cccc(C)c1NC(=O)Cc1ccccc1` [Compound 22, N-(2,6-dimethylphenyl)-2-phenylacetamide], the values for the IC50 in assay [1] (setting [4]), in assay [1] (setting [5]) and in assay [2] (setting [6]) were 96 µM, 95.5 µM and 129 µM, respectively. In assay [1] (Table 7), this molecule yielded a Di of 1.351. The “IL-5 IC-50 compared with lidocaine” value in assay [1] is “lower than lidocaine's”.

As for `O=C(CN1CCN(c2ncccn2)CC1)Nc1ccc(F)cc1F` [Compound 5, N-(2,4-difluorophenyl)-2-(4-pyrimidin-2-ylpiperazinyl)ethanamide], the IC50 in assay [1] (setting [4]) and in assay [1] (setting [7]) was 5 µM each time.

`CN1CCOc2cc(C(=O)O)ccc21` [Compound 21, 4-methyl-3,4-dihydro 2H-1,4-benoxazine 7 carboxylic acid]: the IC50 in assay [1] (setting [4]) was found to be 92 µM; in assay [1] (setting [5]), 91.8 µM; in assay [2] (setting [6]), 130 µM. The same molecule had a Di in assay [1] (Table 7) of 1.412.

Regarding `CC(C)(C)OC(=O)Nc1ccc(C(=O)NCC(=O)O)cc1` [Compound 6, Boc-4-aminohippuric Acid], in assay [1] (setting [4]), the IC50 stood at 19 µM.

For the molecule `CCN(CC)CC(=O)Nc1c(C)cccc1C.Cl` [Compound 19, Lidocaine HCL, reference compound], the IC50 in assay [1] (Homo sapiens, TF-1, 72 h, read-out: IL-5 IC-50) amounted to 84 µM; in assay [2] (TF-1, 72 h, read-out: EPO IC-50, Table 7, TF-1 cells with EPO (2 units/mL)), 276 µM. Further, in assay [1] (Table 7), the Di came to 3.286.

As to `Cc1cccc(C)c1NC(=O)C(C)(C)C` [Compound 18, N-(2,6-dimethylphenyl)pivalamide], the IC50 in assay [1] (setting [4]) is 79 µM. For the same molecule, the “IL-5 IC-50 compared with lidocaine” value in assay [1] was “lower than lidocaine's”.

`CC[N+](CC)(CC(=O)Nc1c(C)cccc1C)Cc1ccccc1` [Compound 28, Denatonium Saccharide]: the IC50 in assay [1] (setting [4]) came out at 136 µM.

On to `Nc1ccc(C(=O)NCc2cccnc2)cc1` [Compound 4, 4-Amino-N-pyridin-3-yl-methyl-benzamide], for which the IC50 in assay [1] (setting [4]) worked out at 1.3 µM; in assay [1] (setting [5]) it was 1.3 µM; in assay [1] (setting [7]), 1.3 µM; in assay [2] (setting [6]), 1.9 µM. The molecule further registered a Di in assay [1] (Table 7) of 1.471.

Consider `C[C@@H]1C[C@H]2[C@@H]3CCC4=CC(=O)C=C[C@]4(C)[C@@]3(F)[C@@H](O)C[C@]2(C)[C@@]1(O)C(=O)CO` [Compound 2, Dexamethasone, reference compound], for which, in assay [1] (EPO IC-50/IL5 IC-50), the Di value was 5.136 and 5.14. Also, the IC50 in assay [1] (setting [4]) came to 9 µM; in assay [1] (setting [5]) it was 7 µM; in assay [1] (setting [7]) it was 4 µM; in assay [2] (setting [6]), 38 µM. The Di in assay [1] (Table 7) is given as 5.136.

`O=C(O)COC1Cc2ccccc2CN1` (stereo not drawn) [Compound 10, 3-Carboxymethoxy-1,2,3,4-Tetrahydroisoquinol]: the IC50 in assay [1] (setting [4]) came out at 26 µM.

As to `CCCCOc1cc(C(=O)OCCN(CC)CC)ccc1N` [Compound 24, Benoxinate, reference compound], the IC50 in assay [1] (setting [4]) amounted to 98 µM.

For the molecule `C[C@@H](O)[C@H](NC(=O)c1ccccc1)C(=O)O` [Compound 11, N-Benzoyl-L-Threonine], the IC50 in assay [1] (setting [4]) worked out at 30 µM.

`O=C(O)C1CNc2ccccc2O1` (stereo not drawn) [Compound 12, 3,4-Dihydro-2H-1,4-Benzoxazine-2-Carboxylic Acid]: in assay [1] (setting [4]), the IC50 came to 38 µM.

`CC1COc2c(F)c(F)cc3c(=O)c(C(=O)O)cn1c23` (stereo not drawn) [Compound 7, 9,10-Difluoro-2,3-dihydro-3-methyl-7-oxo-7H-pyrido[1,2,3-DE]-1,4-benzoxazine-6-carboxylic acid]: the IC50 in assay [1] (setting [4]) stood at 20 µM.

On to `Cc1cccc(C)c1NC(=O)C(C)N` (stereo not drawn) [Compound 14, Tocainide HCL, reference compound], for which, in assay [1] (setting [4]), the IC50 stood at 49 µM.

Regarding `Cc1cccc(C)c1NC(=O)c1ccnc2ccccc12` [Compound 9, N-(2,6-dimethylphenyl)quinoline-4-carboxamide], the IC50 in assay [1] (setting [4]) was determined as 24 µM. Also, the “IL-5 IC-50 compared with lidocaine” value in assay [1] is recorded as “lower than lidocaine's”.

With `CCCCCC(=O)Nc1c(C)cccc1C` [Compound 15, N-(2,6-dimethylphenyl)hexanamide], the IC50 in assay [1] (setting [4]) came to 62 µM; in assay [1] (setting [5]), 62 µM; in assay [2] (setting [6]), 137 µM. This molecule returned a Di in assay [1] (Table 7) of 2.210. Also, the “IL-5 IC-50 compared with lidocaine” value in assay [1] is reported as “lower than lidocaine's”.

Consider `CCN(CC)CC(=O)Nc1c(C)cccc1C` [Compound 1, Lidocaine, reference compound], for which the IC50 in assay [1] (setting [4]) was 147 µM; in assay [1] (setting [5]), 147 µM; in assay [1] (Homo sapiens, TF-1, text b313, TF-1 cell proliferation, read-out: IC-50 (fifty percent growth inhibition)), 147 µM; in assay [1] (setting [7]) it was 140 µM; in assay [2] (setting [6]), 200 µM. The same molecule showed a Di in assay [1] (Table 7) of 1.361. The “prednisolone-dependent patients able to eliminate or significantly reduce steroid usage” value in assay [3] (1996) is given as 17 out of 20. Further, the blood eosinophil levels entry in assay [3] (placebo controlled study, mild to moderate asthma, 2004) was “decreased”.

As for `CN1CCC(=C2c3ccccc3CC(=O)c3sccc32)CC1` [Compound 3, Ketotifen fumarate, reference compound], the IC50 in assay [1] (setting [4]), in assay [1] (setting [5]), in assay [1] (setting [7]) and in assay [2] (setting [6]) was 9 µM each time. In addition, the Di in assay [1] (Table 7) is 1.000.

On to `Nc1ccc2c(c1)OCCO2` [Compound 16, 3,4-Ethylenedioxyaniline], for which the results for the IC50 in assay [1] (setting [4]), in assay [1] (setting [5]) and in assay [2] (setting [6]) were 69 µM, 69 µM and 136 µM, respectively. The molecule further showed a Di in assay [1] (Table 7) of 1.971.

For the molecule `Cc1cccc(C)c1NC(=O)CCC(C)C` [Compound 26, 4-methyl-N-(2,6-dimethylphenyl)-pentanamide], the IC50 in assay [1] (setting [4]) was determined as 119 µM. In addition, in assay [1], the “IL-5 IC-50 compared with lidocaine” value was “lower than lidocaine's”.

As for `Cc1ccccc1C(=O)NCc1cccnc1` [Compound 20, 2-methyl-N-(3-pyridinylmethyl)benzamide], the IC50 in assay [1] (setting [4]) came to 90 µM; in assay [1] (setting [5]) it was 90 µM; in assay [2] (setting [6]), 153 µM. This molecule also had a Di in assay [1] (Table 7) of 1.700.

B1: mepolizumab: anti-IL-5 drug (antibody, chains of the INN, looked up, V domains shown)
VH: QVTLRESGPALVKPTQTLTLTCTVSGFSLTSYSVHWVRQPPGKGLEWLGVIWASGGTDYNSALMSRLSISKDTSRNQVVLTMTNMDPVDTATYYCARDPPSSLLRLDYWGRGTPVTVSS
VL: DIVMTQSPDSLAVSLGERATINCKSSQSLLNSGNQKNYLAWYQQKPGQPPKLLIYGASTRESGVPDRFSGSGSGTDFTLTISSLQAEDVAVYYCQNVHSFPFTFGGGTKLEIK
Regarding B1, the “blood and sputum eosinophils” value with IL-5 was “reduced”.
